Patent US5238935A, “N-acyl-tetrahydroisoquinolines as inhibitors of acyl-coenzyme A: cholesterol acyl transferase” (Schering Corporation, priority 1992, dated 1993)

Key:
[1] = biological target: T1, ACAT (Rattus norvegicus, UniProt Q7TQM4); assay: ACAT assay (in vitro); type: biochemical; conditions: rat liver microsomes; for inhibition at 25 µM / inhibition at 10 µM: read-out: ACAT Inhibition Screen % Inhibition; for IC50: pH 7.4, 37° C., 10 μM acyl CoA, read-out: ACAT Inhibition Screen IC50
T1 construct: Rat liver microsomes are used as the source of ACAT; from tissue; host or cells: rat liver microsomes
T1 sequence (Q7TQM4 1-524): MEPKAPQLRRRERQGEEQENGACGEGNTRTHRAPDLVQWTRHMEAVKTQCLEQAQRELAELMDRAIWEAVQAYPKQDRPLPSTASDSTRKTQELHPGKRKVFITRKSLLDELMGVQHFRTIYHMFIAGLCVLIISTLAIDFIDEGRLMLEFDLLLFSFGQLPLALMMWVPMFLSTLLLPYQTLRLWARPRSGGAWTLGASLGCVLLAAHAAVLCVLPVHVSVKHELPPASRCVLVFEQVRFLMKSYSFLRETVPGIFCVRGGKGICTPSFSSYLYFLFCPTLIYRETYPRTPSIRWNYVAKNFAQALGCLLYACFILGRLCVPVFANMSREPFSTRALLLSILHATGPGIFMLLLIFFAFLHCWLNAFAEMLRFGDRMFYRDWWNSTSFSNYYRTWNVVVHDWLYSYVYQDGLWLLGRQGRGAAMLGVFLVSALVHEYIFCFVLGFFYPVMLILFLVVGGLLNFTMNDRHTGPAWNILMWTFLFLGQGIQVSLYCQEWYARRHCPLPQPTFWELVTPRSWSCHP
Protocol: The in vitro activity of compounds of formula I or Ia can be determined by the following procedure.
This assay measures the activity of ACAT by measuring the ACAT-mediated transfer of tritiated oleic acid from acyl-CoA to cholesterol to give labelled cholesterol oleate. Rat liver microsomes are used as the source of ACAT. Assays are performed in round bottom microtiterplates using a total incubation volume of 50μL. Each incubation well receives 10 μL assay buffer (0.5M KHPO4, 10 μM dithiothreitol, pH 7.4), 7.5 μL of 40 mg/mL BSA (Bovine Serum Albumin) and 12.5 μg of microsomal protein. The test compound (in sufficient amount to bring the final concentration to from 0.1 to 25 μM), reference compound, or vehicle control is added and the final volume brought to 47 μL. The microtiterplate is then floated on the surface of a 37° C. water bath for fifteen minutes. Incubations are started by the addition of 3 μL ^3 H-acyl CoA (1 μCi/well, final concentration of 10 μM acyl CoA). The plate is then returned to the water bath for 15 minutes. The incubations are then terminated by application of 15 μL from each incubation to individual lanes on a thin layer plate (Silica Gel GF 20×20 cm). Standards are applied to several lanes so that the cholesterol ester band can be identified. After drying, the plates are eluted with 90:10:1 petroleum ether:diethyl ether:acetic acid. The standards are visualized via iodine vapor, and the regions corresponding to cholesterol ester are scraped into 7 mL scintillation vials. 4 mL of scintillant are added to each vial, and the radioactivity quantified. Background count is determined by the boiled controls. Full activity is determined by activity in the presence of vehicle. The percent inhibition is calculated by subtracting the background from both control and test samples, and the test value is calculated as a percentage of the control. For IC50 determinations, the inhibition is plotted against drug doses on a log scale and the concentration at which 50% inhibiting is obtained is determined.

[2] = biological target: T1, ACAT; assay: ACAT assay (in vitro); type: biochemical; conditions: rat liver microsomes, read-out: ACAT Inhibition Screen % Inhibition

| SMILES | inhibition at 25 µM [1] [%] | IC50 [1] [µM] | further results |
| --- | --- | --- | --- |
| CCCCCCCC/C=C\CCCCCCCC(=O)N1Cc2cc(OC)c(OC)cc2C(c2ccccc2)C1 (centres unmarked) [R3=H, R4=H, R5=C6H5, R2a=CH3O, R2b=CH3O, N-(6,7-dimethoxy-4-phenyl-1,2,3,4-tetrahydroisoquinoline)-9-Z-octadecenamid] | 83 | 2.4 |  |
| CCCCCCCC/C=C\CCCCCCCC(=O)N1CCc2cc(C)c(OC)cc2C1CCc1ccc(Cl)cc1 (centres unmarked) | 4 |  |  |
| CCCCCCCC/C=C\CCCCCCCC(=O)N1CCc2cc(OC)c(OC)cc2C1Cc1ccc(OC)c(OC)c1 (centres unmarked) | 91 |  |  |
| CCCCCCCC/C=C\CCCCCCCC(=O)N1CCc2cc(O)c(O)cc2C1Cc1ccccc1 (centres unmarked) [R3=C6H5CH2, R4=H, R5=H, R2a=OH, R2b=OH, N-(1-benzyl-6,7-dihydroxy-1,2,3,4-tetrahydroisoquinoline)-9-Z-octadecenamide] | 73 |  |  |
| CCCCCCCC/C=C\CCCCCCCC(=O)N1CCc2cc(OC)c(OC)cc2C1Cc1ccccc1 (centres unmarked) | 63 |  |  |
| CCCCCCCC/C=C\CCCCCCCC(=O)N1Cc2cc(OC)c(OC)cc2CC1c1ccc(OC)c(OC)c1 (centres unmarked) [N-[6,7-dimethoxy-3-(3,4-dimethoxyphenyl)-1,2,3,4-tetrahydroisoquinoline]-9-Z-octadecenamide] | 67 |  |  |
| CCCCCCCC/C=C\CCCCCCCC(=O)N1CCc2ccccc2C1Cc1ccccc1 (centres unmarked) [R3=C6H5CH2, R4=H, R5=H, R2a=H, R2b=H] | 81 |  |  |
| CCCCCCCC/C=C\CCCCCCCC(=O)N1CCc2cc(OC)c(OC)cc2C1 [R3=H, R4=H, R5=H, R2a=CH3O, R2b=CH3O] | 100 | 0.74 |  |
| CCCCCCCC/C=C\CCCCCCCC(=O)N1CCc2ccccc2C1 [R3=H, R4=H, R5=H, R2a=H, R2b=H] |  | 12 | inhibition at 100 µM [2]: 83% |
| CCCCCCCC/C=C\CCCCCCCC(=O)N1CCc2ccccc2C1c1cc(Cl)ccc1NC (centres unmarked) [N-[1-(2-methylamino-5-chlorophenyl)-1,2,3,4-tetrahydroisoquinoline]-9-Z-octadecenamide] |  |  | inhibition at 10 µM [1]: 10% |
| CCCCCCCC/C=C\CCCCCCCC(=O)N1Cc2cc(OC)c(OC)cc2CC1c1ccccc1 (centres unmarked) [R3=H, R4=C6H5, R5=H, R2a=CH3O, R2b=CH3O, N-(6,7-dimethoxy-3-phenyl1,2,3,4-tetrahydroisoquinoline)-9-Z-octadecenamide] | 86 |  |  |
| CCCCCCCC/C=C\CCCCCCCC(=O)N1CCc2cc(OC)c(OC)cc2C1c1ccccc1 (centres unmarked) [N-(6,7-dimethoxy-1-phenyl-1,2,3,4-tetrahydroisoquinoline)-9-Z-octadecenamid] |  |  | inhibition at 10 µM [1]: 66% |
| CCCCCCCC/C=C/CCCCCCCC(=O)N1CCc2cc(OC)c(OC)cc2C1c1ccccc1 (centres unmarked) |  | 8 | inhibition at 10 µM [1]: 87% |
